Experimental data reported in patent US20100029643A1 (ASTRAZENECA AB, priority 2006, published 2010).

Target: T1, Edg-1/S1P1 receptor (Homo sapiens, UniProt P21453)
T1 construct: expressed in transfected cells; host or cells: human osteogenic sarcoma U2OS cells: Edg-1 Transfluor U2OS WT Clone #37 (assay I), Edg-1 Transfluor U2OS Clone #3 (assay II)
Test: In vitro cell based receptor activation assay - Transfluor assay (assay I or II; beta-arrestin GFP relocalization after S1P stimulation)
Conditions: at 3.50 μM (titrated from top concentration 10 μM)
Summary of the method: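 U2OS cells overexpressing S1P1 with a beta-arrestin-GFP construct were pre-incubated with compound for 15 min at room temperature, then stimulated with S1P for 45 min at 37 °C. In assay I, final S1P was 375 nM or 750 nM and compound was a 9-point 3-fold series from 100 μM, in 1% DMSO. Cells were fixed and Hoechst-stained, GFP relocalization was imaged, and EC50 values were fitted.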

T1 sequence (P21453 whole entry): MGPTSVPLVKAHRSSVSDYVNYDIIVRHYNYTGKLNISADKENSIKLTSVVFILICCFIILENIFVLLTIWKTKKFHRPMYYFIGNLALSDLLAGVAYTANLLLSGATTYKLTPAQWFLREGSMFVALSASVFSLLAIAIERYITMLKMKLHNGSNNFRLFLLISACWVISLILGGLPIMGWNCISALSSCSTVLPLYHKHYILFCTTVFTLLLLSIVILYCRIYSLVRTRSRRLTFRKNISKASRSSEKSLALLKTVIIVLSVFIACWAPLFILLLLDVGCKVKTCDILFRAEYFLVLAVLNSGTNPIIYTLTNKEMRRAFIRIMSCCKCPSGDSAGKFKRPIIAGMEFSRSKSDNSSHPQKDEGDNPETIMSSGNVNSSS

Row | SMILES | inhibition at 3.5 µM [%]
1 | CCn1c([C@@H](C)NS(=O)(=O)c2ccc(Cl)cc2)nc2cnc(C(F)(F)F)cc21 [Example 147, (R)-4-Chloro-N-(1-(1-ethyl-6-(trifluoromethyl)-1H-imidazo[4,5-c]pyridin-2-yl)ethyl)benzenesulfonamide] | 95.9
2 | CCn1c([C@@H](C)NS(=O)(=O)c2ccc(C#N)nc2)nc2cnc(C(F)(F)F)cc21 [Example 148, (R)-6-Cyano-N-(1-(1-ethyl-6-(trifluoromethyl)-1H-imidazo[4,5-c]pyridin-2-yl)ethyl)pyridine-3-sulfonamide] | 93
3 | CCn1c([C@@H](C)NS(=O)(=O)c2ccc(C(N)=O)nc2)nc2cnc(C(F)(F)F)cc21 [Example 149, (R)-5-(N-(1-(1-Ethyl-6-(trifluoromethyl)-1H-imidazo[4,5-c]pyridin-2-yl)ethyl)sulfamoyl)picolinamide] | 93.3
4 | CCn1c([C@@H](C)NS(=O)(=O)c2ccc(C#N)cc2)nc2cnc(OC)cc21 [Example 150, (R)-4-Cyano-N-(1-(1-ethyl-6-methoxy-1H-imidazo[4,5-c]pyridin-2-yl)ethyl)benzenesulfonamide] | 91.6
5 | CCn1c([C@@H](C)NS(=O)(=O)c2ccc(C#N)nc2)nc2cnc(OC)cc21 [Example 151, (R)-6-Cyano-N-(1-(1-ethyl-6-methoxy-1H-imidazo[4,5-c]pyridin-2-yl)ethyl)pyridine-3-sulfonamide] | 91.7
6 | CCn1c([C@@H](C)NS(=O)(=O)c2ccc(C(N)=O)nc2)nc2cnc(OC)cc21 [Example 152] | 91.8
7 | CCn1c(C(C)(C)NS(=O)(=O)c2ccc(F)cc2)nc2cnc(C(F)(F)F)cc21 [Example 153, N-(2-(1-Ethyl-6-(trifluoromethyl)-1H-imidazo[4,5-c]pyridin-2-yl)propan-2-yl)-4-fluorobenzenesulfonamide] | 82
8 | CCn1c(C(C)(C)NS(=O)(=O)c2ccc(C#N)cc2)nc2cnc(C(F)(F)F)cc21 [Example 154, 4-Cyano-N-(2-(1-ethyl-6-(trifluoromethyl)-1H-imidazo[4,5-c]pyridin-2-yl)propan-2-yl)benzenesulfonamide] | 77.3
9 | CCn1c(C(C)(C)NS(=O)(=O)c2ccc(C#N)nc2)nc2cnc(C(F)(F)F)cc21 [Example 155, 6-Cyano-N-(2-(1-ethyl-6-(trifluoromethyl)-1H-imidazo[4,5-c]pyridin-2-yl)propan-2-yl)pyridine-3-sulfonamide] | 78.9
10 | CCn1c([C@@H](C)NS(=O)(=O)c2ccc(OC(C)C)cc2)nc2ccc(C(F)(F)F)cc21 [Example 156] | 80.7
11 | CCOc1ccc(S(=O)(=O)N[C@H](C)c2nc3ccc(C(F)(F)F)cc3n2CC)cc1 [Example 157, (R)-4-Ethoxy-N-(1-(1-ethyl-6-(trifluoromethyl)-1H-benzo[d]imidazol-2-yl)ethyl)benzenesulfonamide] | 88.4
12 | CCn1c([C@@H](C)NS(=O)(=O)c2ccc(C(N)=O)n2C)nc2ccc(C(F)(F)F)cc21 [Example 158, (R)-5-(N-(1-(1-Ethyl-6-(trifluoromethyl)-1H-benzo[d]imidazol-2-yl)ethyl)sulfamoyl)-1-methyl-1H-pyrrole-2-carboxamide] | 93.6

More lines, now with the values ahead:

Row | inhibition at 3.5 µM [%] | SMILES
13 | 19.8 | CCn1c([C@@H](C)NS(=O)(=O)c2ccc(-c3ccccc3)cc2)nc2ccc(C(F)(F)F)cc21 [Example 159, (R)-N-(1-(1-Ethyl-6-(trifluoromethyl)-1H-benzo[d]imidazol-2-yl)ethyl)biphenyl-4-sulfonamide]
14 | 90.3 | CCn1c([C@@H](C)NS(=O)(=O)c2cc(C)nc(C)c2)nc2ccc(C(F)(F)F)cc21 [Example 160, (R)-N-(1-(1-Ethyl-6-(trifluoromethyl)-1H-benzo[d]imidazol-2-yl)ethyl)-2,6-dimethylpyridine-4-sulfonamide]
15 | 91.4 | CCn1c([C@@H](C)NS(=O)(=O)c2ccnc(C)c2)nc2ccc(C(F)(F)F)cc21 [Example 161, (R)-N-(1-(1-Ethyl-6-(trifluoromethyl)-1H-benzo[d]imidazol-2-yl)ethyl)-2-methylpyridine-4-sulfonamide]
16 | 90.3 | CCn1c([C@@H](C)NS(=O)(=O)c2cncc(Br)c2)nc2ccc(C(F)(F)F)cc21 [Example 162]
17 | 19.5 | CCn1c([C@@H](C)NS(=O)(=O)c2ccc[n+]([O-])c2)nc2ccc(C(F)(F)F)cc21 [Example 164, (R)-3-(N-(1-(1-ethyl-6-(trifluoromethyl)-1H-benzo[d]imidazol-2-yl)ethyl)sulfamoyl)pyridine 1-oxide]
18 | 75.6 | CCn1c([C@@H](C)NS(=O)(=O)c2cc[n+]([O-])cc2)nc2ccc(C(F)(F)F)cc21 [Example 165, (R)-4-(N-(1-(1-Ethyl-6-(trifluoromethyl)-1H-benzo[d]imidazol-2-yl)ethyl)sulfamoyl)pyridine 1-oxide]
19 | 86 | CCn1c([C@@H](C)NS(=O)(=O)c2ccc(CCl)cc2)nc2ccc(C(F)(F)F)cc21 [Example 166, (R)-4-(Chloromethyl)-N-(1-(1-ethyl-6-(trifluoromethyl)-1H-benzo[d]imidazol-2-yl)ethyl)benzenesulfonamide]
20 | 86 | CCn1c([C@@H](C)NS(=O)(=O)c2ccc(CC#N)cc2)nc2ccc(C(F)(F)F)cc21 [Example 167, (R)-4-(cyanomethyl)-N-(1-(1-ethyl-6-(trifluoromethyl)-1H-benzo[d]imidazol-2-yl)ethyl)benzenesulfonamide]
21 | 77.1 | CCn1c([C@@H](C)NS(=O)(=O)c2ccc(NN)nc2)nc2ccc(C(F)(F)F)cc21 [Example 168, (R)—N-(1-(1-ethyl-6-(trifluoromethyl)-1H-benzo[d]imidazol-2-yl)ethyl)-6-hydrazinylpyridine-3-sulfonamide]
22 | 87.1 | CCn1c(C(C)NS(=O)(=O)c2cnc(N)c(Cl)c2)nc2ccc(C(F)(F)F)cc21 (centres unmarked) [Example 169, 6-amino-5-chloro-N-(1-(1-ethyl-6-(trifluoromethyl)-1H-benzo[d]imidazol-2-yl)ethyl)pyridine-3-sulfonamide]
23 | 83.1 | CCn1c(C(C)NS(=O)(=O)c2ccc(N)nc2)nc2ccc(C(F)(F)F)cc21 (centres unmarked) [Example 170, 6-amino-N-(1-(1-ethyl-6-(trifluoromethyl)-1H-benzo[d]imidazol-2-yl)ethyl)pyridine-3-sulfonamide]
24 | 73.3 | CCn1c(C(C)NS(=O)(=O)c2ccc(=O)[nH]c2)nc2ccc(C(F)(F)F)cc21 (centres unmarked) [Example 171, N-(1-(1-ethyl-6-(trifluoromethyl)-1H-benzo[d]imidazol-2-yl)ethyl)-6-oxo-1,6-dihydropyridine-3-sulfonamide]
25 | 69.1 | CCn1c([C@@H](C)NS(=O)(=O)c2ccc(C(=O)NC)nc2)nc2ccc(C(F)(F)F)cc21 [Example 172, (R)-5-[1-(1-Ethyl-6-trifluoromethyl-1H-benzoimidazol-2-yl)-ethylsulfamoyl]-pyridine-2-carboxylic acid methylamide]
26 | 81.9 | CCn1c([C@@H](C)NS(=O)(=O)c2ccc(C#N)nc2)nc2cnc(C3CC3)cc21 [Example 173, 6-Cyano-pyridine-3-sulfonic acid [1-(6-cyclopropyl-1-ethyl-1H-imidazo[4,5-c]pyridin-2-yl)-ethyl]-amide]
